US20240225971A1 (Genomatica, Inc., priority 2021, published 2024)
Converted amounts (≈) assume the structure as drawn. Read-outs that look alike come from different tables or passages of the source.

How the values were obtained:
physchem = assay: physchem
Text: The term “fragrance composition” or “composition,” as used herein, represents a composition containing one or more fragrance ingredients described here and formulated with a physiologically acceptable diluent or solvent, used interchangeably here. In a fragrance composition, or composition that has a fragrance, such as a perfume, 20%-40% of the observable liquid may be comprised of a diluent, i.e., the delivery system for scents of the fragrance ingredients. The “log P” value, as used here, indicates whether a substance or fragrance ingredient will be absorbed by humans, animals, plants, or living tissue; diffused or disseminated by water.
(§1) Also included is the molecular weight of each of the fragrance ingredients. Not determinable (ND).

[1] = Water solubility at 25° C. of fragrance ingredients
Text: as §1

[2] = Vapor pressure of fragrance ingredients
Text: as §1

[3] = Flash point of fragrance ingredients; format: physicochemical
Text: as §1

[4] = Clarity of fragrance ingredient in bioderived 1,3-BG by visual observation
[5] = 10% ingredient in bioderived 1,3-BG, clear, slightly haze, cloudy, particles, or separation

CCCCCCCCCC=O [Aldehyde C-10]
logP (physchem): 3.97 | Water Solubility ([1]; 25° C.): 43.520 µg/mL | Vapor Pressure [2]: 0.207 mm hg | Flash Point [3]: 82 °C

C=CCCCCCCCCC=O [Aldehyde C-11 Undecylenic]
logP (physchem): 4.072 | Water Solubility ([1]; 25° C.): 30.000 µg/mL | Vapor Pressure [2]: 0.039 mm hg | Flash Point [3]: 76 °C

CCCCCCCCCCCC=O [Aldehyde C-12 Lauric]
logP (physchem): 4.989 | Water Solubility ([1]; 25° C.): 4.649 µg/mL | Vapor Pressure [2]: 0.034 mm hg | Flash Point [3]: 116 °C | Clarity 10% [4, 5]: Clear

CCCCCCCCCC(C)C=O (stereo not shown) [Aldehyde C-12 MNA]
logP (physchem): 4.834 | Water Solubility ([1]; 25° C.): 5.372 µg/mL | Vapor Pressure [2]: 4.834 mm hg | Flash Point [3]: 69 °C | Clarity 10% [4, 5]: Clear

C=CCOC(=O)COCCC(C)C [Allyl Amyl Glycolate]
logP (physchem): 2.7 | Water Solubility ([1]; 25° C.): 510.700 µg/mL | Vapor Pressure [2]: 0.04 mm hg | Flash Point [3]: 93 °C

CC1(O)CCC2C(=CCCC2(C)C)C1 (stereo not shown) [Ambrinol]
logP (physchem): 3.785 | Water Solubility [1]: 134.300 µg/mL | Vapor Pressure [2]: 0.0005 mm hg | Flash Point [3]: 100 °C | Clarity 10% [4, 5]: Clear

CC1(C)CCC[C@]2(C)[C@H]3CCO[C@]3(C)CC[C@@H]12 [Ambrox Super (Ambroxan), Ambroxan]
Vapor Pressure [2]: 0.009 mm hg | Flash Point [3]: 100 °C | Clarity 10% [4, 5]: Particles

CC=Cc1ccc(OC)cc1 [Anethole]
Vapor Pressure [2]: 0.069 mm hg | Flash Point [3]: 110 °C | Clarity 10% [4, 5]: Cloudy

COc1ccc(C=O)cc1 [Anisic Aldehyde]
Water Solubility [1]: 4290.000 µg/mL | Vapor Pressure [2]: 1 mm hg | Flash Point [3]: 116 °C | Clarity 10% [4, 5]: Clear

COc1ccc(COC(C)=O)cc1 [Anisyl Acetate]
logP (physchem): 1.887 | Water Solubility ([1]; 25° C.): 782.900 µg/mL | Vapor Pressure [2]: 0.021 mm hg | Flash Point [3]: 135 °C | Clarity 1% [4]: Clear | Clarity 10% [4]: Clear

CC/C(=C\CC1CC=C(C)C1(C)C)CO (stereo not shown) [Bacdanol]
logP (physchem): 4.3 | Water Solubility ([1]; 25° C.): 17.000 µg/mL | Vapor Pressure [2]: 0.00028 mm hg | Flash Point [3]: 199 °C | Clarity 10% [4, 5]: Clear

CC(=O)OCc1ccccc1 [Benzyl Acetate]
Vapor Pressure [2]: 0.177 mm hg | Flash Point [3]: 91 °C | Clarity 10% [4, 5]: Clear

CC1C(C)(C)C2=C(C(=O)CCC2)C1(C)C (stereo not shown) [Cashmeran]
logP (physchem): 4.5 | Water Solubility ([1]; 25° C.): 5.937 µg/mL | Vapor Pressure [2]: 0.003 mm hg | Flash Point [3]: 94 °C | Clarity 10% [4, 5]: Clear

N#C/C=C/c1ccccc1 [Cinnamalva]
logP (physchem): 1.84 | Water Solubility [1]: 1067.000 µg/mL | Vapor Pressure [2]: 0.023 mm hg | Flash Point [3]: 94 °C | Clarity 10% [4, 5]: Clear

CC/C=C\CCO [Cis-3-Hexenol]
logP (physchem): 1.7 | Vapor Pressure [2]: 1.039 mm hg | Flash Point [3]: 44 °C | Clarity 10% [4, 5]: Clear

CC/C=C\CCOC(=O)c1ccccc1O [Cis-3-Hexenyl Salicylate]
logP (physchem): 4.4 | solubility ([1]; water, 25 °C): 9.52 µg/mL (≈ 43.2 µM) | Vapor Pressure [2]: 0.000246 mm hg | Flash Point [3]: 110 °C | Clarity 10% [4, 5]: Cloudy

CC(C)=CCCC(C)=CC=O [Citral]
Vapor Pressure [2]: 0.2 mm hg | Flash Point [3]: 98 °C | Clarity 10% [4, 5]: Clear

CC1=CC(C)C(C=O)CC1 (stereo not shown) [Cyclal C/Triplal]
logP (physchem): 3 | Water Solubility [1]: 311.500 µg/mL | Vapor Pressure [2]: 0.578 mm hg | Flash Point [3]: 66 °C | Clarity 10% [4, 5]: Clear

c1ccc(COCc2ccccc2)cc1 [Dibenzyl Ether]
logP (physchem): 3.31 | solubility ([1]; water, 25 °C): 40 µg/mL (≈ 202 µM) | Vapor Pressure [2]: 0.00103 mm hg | Flash Point [3]: 93 °C | Clarity 10% [4, 5]: Cloudy

C=CC(C)CCCC(C)(C)O (stereo not shown) [Dihydro Myrcenol]
logP (physchem): 2.99 | Water Solubility ([1]; 25° C.): 252.200 µg/mL | Vapor Pressure [2]: 0.166 mm hg | Flash Point [3]: 76 °C | Clarity 10% [4, 5]: Clear

CC(C)CCCC(C)(C)O [Dimetol]
logP (physchem): 2.976 | Water Solubility ([1]; 25° C.): 777.000 µg/mL | Vapor Pressure [2]: 0.33 mm hg | Flash Point [3]: 63 °C | Clarity 10% [4, 5]: Clear

CCOc1cc(C=O)ccc1O [Ethyl Vanillin]
Water Solubility [1]: 2820.000 µg/mL | Vapor Pressure [2]: 0.001 mm hg | Flash Point [3]: 127 °C | Clarity 10% [4, 5]: Clear

O=C1CCCCCCCCCCCC(=O)OCCO1 [Ethylene Brassylate]
logP (physchem): 2.77 | solubility ([1]; water, 25 °C): 1.72 µg/mL (≈ 6.36 µM) | Vapor Pressure [2]: 0 mm hg | Flash Point [3]: 110 °C | Clarity 10% [4, 5]: Cloudy

CC12CCC(CC1)C(C)(C)O2 [Eucalyptol]
logP (physchem): 2.74 | solubility ([1]; water, 25 °C): 3500 µg/mL (≈ 22700 µM) | Vapor Pressure [2]: 1.9 mm hg | Flash Point [3]: 50 °C | Clarity 10% [4, 5]: Clear

CCOC(=O)CC1(C)OCCO1 [Fructone]
logP (physchem): 0.982 | Water Solubility ([1]; 25° C.): 100.000 µg/mL | Vapor Pressure [2]: 0.219 mm hg | Flash Point [3]: 93 °C | Clarity 10% [4, 5]: Clear

CC1COCc2cc3c(cc21)C(C)(C)C(C)C3(C)C (stereo not shown) [Galaxolide]
logP (physchem): 5.92 | solubility ([1]; 25 °C, water): 0.194 µg/mL (≈ 0.751 µM) | Vapor Pressure [2]: 0.000414 mm hg | Flash Point [3]: 104 °C | Clarity 10% [4, 5]: Separation

O=Cc1ccc2c(c1)OCO2 [Heliotropine]
logP (physchem): 1.05 | Water Solubility [1]: 3500.000 µg/mL | Vapor Pressure [2]: 0.003 mm hg | Flash Point [3]: 110 °C | Clarity 1% [4]: Clear | Clarity 10% [4]: Clear

CC(=O)C1(C)CC2=C(CCCC2(C)C)CC1C (stereo not shown) [Iso E Super]
logP (physchem): 4.71 | Vapor Pressure [2]: 0.001 mm hg | Flash Point [3]: 111 °C | Clarity 10% [4, 5]: Cloudy

CC(=O)OCCC(C)C [Isoamyl Acetate]
Water Solubility ([1]; 25° C.): 2000.000 µg/mL | Vapor Pressure [2]: 5.6 mm hg | Flash Point [3]: 38 °C | Clarity 10% [4, 5]: Clear

C=CC(C)(O)CCC=C(C)C (stereo not shown) [Linalool]
Vapor Pressure [2]: 0.016 mm hg | Flash Point [3]: 75 °C | Clarity 10% [4, 5]: Clear

C=CC(C)(CCC=C(C)C)OC(C)=O (stereo not shown) [Linalyl Acetate]
logP (physchem): 3.93 | solubility ([1]; 25 °C, water): 20.1 µg/mL | Vapor Pressure [2]: 0.116 mm hg | Flash Point [3]: 94 °C | Clarity 1% [4]: Clear

CC(=O)C(C)=CC1C(C)=CCCC1(C)C (stereo not shown) [Methyl Ionone Gamma]
logP (physchem): 4.315 | Water Solubility [1]: 2.980 µg/mL | Vapor Pressure [2]: 0.006 mm hg | Flash Point [3]: 110 °C | Clarity 10% [4, 5]: Cloudy

CC1CC=CCCCCCCCCCC(=O)C1 (stereo not shown) [Muscenone]
logP (physchem): 4.88 | Water Solubility ([1]; 25° C.): 0.346 µg/mL | Vapor Pressure [2]: 0.1 mm hg | Flash Point [3]: 100 °C | Clarity 10% [4, 5]: Cloudy

COc1cc(C=O)ccc1O [Vanillin]
solubility ([1]; water, 25 °C): 6880 µg/mL (≈ 45200 µM) | Vapor Pressure [2]: 0.002 mm hg | Flash Point [3]: 153 °C | Clarity 10% [4, 5]: Clear

CC(=O)C1=C(C)C2CC3(C1)C(C)CCC3C2(C)C (stereo not shown) [Vertofix Coeur]
logP (physchem): 5.6 | Vapor Pressure [2]: 0.000084 mm hg | Flash Point [3]: 100 °C | Clarity 10% [4, 5]: Cloudy
